The values below come from PubChem BioAssay AID2305 (GlaxoSmithKline (GSK), 2010).

Several values for one entry are separate records, joined by “and”; a condition that tells them apart may be missing. Equal values may be shown once.

As a reminder, the IC50 is the midpoint of a concentration-inhibition curve. Lower therefore signals inhibition by little substance.

The experiment has as its system P. falciparum 3D7 growth, pLDH absorbance. Put plainly: P. falciparum 3D7 growth inhibition, dose response, strain 3D7 (AID 2305).

For the compound `COC(=O)CCCCOc1c(OC)cc(Cc2cnc(N)nc2N)cc1OC`, the IC50 stood at 0.04 µM.

`O=[N+]([O-])c1ccc(C=NNc2nc3ccccc3[nH]2)cc1` returned an IC50 of 0.28 µM. In turn, `c1cc(CN2CCN(c3ccncc3)CC2)cc(-c2ccc(-c3nc4ccccc4[nH]3)cc2)c1` yielded a 50% inhibitory concentration (IC50) of 0.15 µM. `O=C(Nc1nc(-c2ccccn2)cs1)c1ccccc1COc1ccccc1`: the 50% inhibitory concentration (IC50) worked out at 0.97 µM. `O=C(N[C@@H](CC1CCCCC1)C(=O)NC1CCCc2ccccc21)c1ccc(O)c(-c2cccc([N+](=O)[O-])c2)c1` (some centres not stated) registered an IC50 of 0.61 µM. `COc1ccc(C(=O)Nc2ccc(-c3ccc([N+](=O)[O-])cc3)cc2)cc1CCCN(C)C` showed an IC50 of 0.8 µM.

As for `COc1cccc2c(NN=Cc3cccc(F)c3)ccnc12`, the IC50 was 0.93 µM. The IC50 values of the last two compounds are within 1.5-fold of each other.

The compound `COc1ccc(Br)cc1/C=C/C(=O)Nc1ccc2c(c1)CCCN(C)C2` showed a half-inhibitory concentration (IC50) of 1.56 µM. This IC50 lies about 1.7-fold higher than the previous one. The figure for `Cc1ccc(/C=C/C(=O)NC2CCC(CN3CCC(c4c[nH]c5ccccc45)CC3)CC2)cc1` (configuration not stated) is 0.92 µM and 0.8 µM; for `C=C[C@@H]1CN2CC[C@H]1C[C@H]2[C@H](O)c1cc(-c2ccc(Cl)cc2)nc2ccc(OC)cc12` it is 0.03 µM. In the case of `CC1CCCN(S(=O)(=O)c2ccc(NC(=O)c3cc(-c4ccccc4O)n[nH]3)cc2)C1` (configuration not stated), the IC50 amounted to 0.76 µM. In turn, `CNC(=O)C1Cc2c([nH]c3ccc(Br)cc23)C2(CCN(CCc3ccccc3)CC2)N1` (configuration not stated) came in with an IC50 of 0.92 µM. The compound `Cc1cc(NCCc2ccccc2)nc(/N=C(\N)Nc2cccc(Cl)c2)n1` came in with a half-maximal inhibitory concentration (IC50) of 0.18 µM. Compared with the last compound, the IC50 is about 5.1-fold lower.

As to `CCCCCN1CCCN(Cc2cccc(NC(=O)c3ccc(Cl)c(Cl)c3)c2)CC1`, the IC50 amounted to 0.93 µM.

The compound `Cc1cc(NC(=O)c2cccs2)ccc1OC1CCN(Cc2ccc(F)cc2)C1` (configuration not stated) had a concentration for half-maximal inhibition (IC50) of 0.67 µM. This IC50 and that of the compound before are within 1.5-fold of each other. To `Clc1ccc(Sc2cncnc2N2CCOCC2)cc1` belongs 0.04 µM; to `CCOc1cc(C(=O)Nc2cccnc2)cc(Br)c1OCCC(C)C`, 1.08 µM; to `COC(=O)c1cccc(C#CCCOCCCCCCNC[C@H](O)c2cc(Cl)c(N)c(Cl)c2)c1`, 0.77 µM. With `COc1cc2c(c(Cl)c1OC)CCN(C(=O)C(F)(F)F)CC2c1ccccc1` (configuration not stated), the IC50 worked out at 0.44 µM. As to `O=C(NCCN1CCCC1)c1cccc(-c2ccc(-c3nc4ccc(F)cc4[nH]3)s2)c1`, the IC50 was 1.53 µM. `COc1ccc(CN(C)CCCc2ccc(NC(=O)c3cccc4c(=O)c5ccccc5[nH]c34)cc2)cc1OC`: the IC50 was 1.37 µM. To `CCc1cc(Br)c2c(c1)C(NCCCNc1cc(=O)c3ccccc3[nH]1)CCN2` (configuration not stated) belongs 0.85 µM; to `COc1cc(-c2ccc3c(-c4ccc(C(=O)N5CCN(C)CC5)cc4)[nH]nc3n2)cc(OC)c1OC`, 1.33 µM. As to `COc1ccc2cc(C(C)NC3CCN(c4cccc(NC(=O)c5ccncc5)c4)CC3)ccc2c1` (configuration not stated), the 50% inhibitory concentration (IC50) came to 1.55 µM.

With `CC(C)(CC1CCCCC1)NC(=O)[C@H](CC1CCCCC1)Nc1ccc(C#N)c2ccccc12`, the half-inhibitory concentration (IC50) stood at 0.59 µM. Against the preceding compound, the IC50 is about 2.6-fold lower. For the compound `Cn1cncc1C(=O)Nc1cccc(-c2ccc(-c3nc4ccc(F)cc4[nH]3)s2)c1`, the IC50 turned out to be 0.87 µM. The figure for `Cc1cc(C(=O)OCC(N)=O)c(C)n1-c1ccc(F)cc1` is 0.33 µM; for `CN1CCCC(CN2CCN(Cc3cccc(-c4ccc(-c5nc6ccccc6[nH]5)s4)c3)CC2)C1` (configuration not stated) it is 0.15 µM.

The compound `CN(C)CCNCc1ccc(-c2ccc3c(Nc4ccc(Oc5ccccc5)cc4)ccnc3c2)o1` returned an IC50 of 0.28 µM. Regarding `Cc1ccc(C)c(C=CC(=O)NC2CCC(CN3CCC(c4c[nH]c5ccccc45)CC3)CC2)c1` (configuration not stated), the 50% inhibitory concentration (IC50) was 0.76 µM and 0.7 µM. To `O=C(Nc1ccccc1)Nc1ccc(-c2cccc(-c3nc4ccc(C(F)(F)F)cc4[nH]3)c2)cc1` belongs 0.73 µM; to `COc1ccc(Nc2nccc(N3CCC(NS(=O)(=O)c4ccc(NC(C)=O)cc4)C3)n2)cc1` (configuration not stated), 0.8 µM; to `CCCCCCCc1cc(O)c2c3c(c(=O)oc2c1)CN(C)CC3`, 0.14 µM.

`O=c1cc(NCCCNCc2ccc(Cl)c(Cl)c2)[nH]c2ccc(C(F)(F)F)cc12` had an IC50 of 0.52 µM. This IC50 is about 3.7-fold higher than that of the compound before. Regarding `O=C(Cn1c(CCc2cccc(F)c2F)nc(=O)c2cccnc21)N(Cc1ccc(-c2ccc(C(F)(F)F)cc2)cc1)C1CCN(C2CCSCC2)CC1`, the IC50 amounted to 0.23 µM. This IC50 lies about 2.3-fold lower than the previous one. For the compound `c1ccc(CCNc2ncnc3c2[nH]c2ccccc23)cc1`, the concentration for half-maximal inhibition (IC50) worked out at 0.6 µM. With `Cc1ccc(N2C(N)=NC(N)=NC2(C)C)cc1`, the IC50 was 0.04 µM. This IC50 lies about 15-fold lower than the previous one. As for `CCCOc1cc(NC(=O)Nc2ccnc3ccccc23)cc(OCCC)c1`, the IC50 was 0.73 µM.

For `COCC(=O)N(Cc1cccc(-c2ccc(CNCCc3ccccc3)cc2)c1)C1CCN(Cc2ccccc2)CC1`, the IC50 was found to be 1.1 µM.

With `COc1ccc(-c2ccc(NC(=O)c3ccccc3)cc2)cc1CN1CCCN(C)CC1`, the IC50 worked out at 0.91 µM. To `Cc1ccc(S(=O)(=O)Nc2ccc(Nc3nccc(Nc4cccc5[nH]ncc45)n3)cc2)cc1` belongs 0.96 µM; to `NCc1ccc(CNCc2cccc(-c3ccc(-c4nc5ccc(C(F)(F)F)cc5[nH]4)cc3)c2)cc1`, 0.26 µM. Turning to `CCNc1cc(C(=O)N[C@@H](Cc2ccccc2)[C@H](O)CNCCC(C)c2ccccc2)cc(N2CCCC2=O)c1` (some centres not stated), the IC50 is 0.51 µM. `O=C(NCCc1ccccc1)N(Cc1ccccc1-c1ccc(CNCCc2ccccc2)cc1)C1CCN(Cc2ccccc2)CC1` yielded an IC50 of 0.72 µM. The figure for `COc1cccc(CNC(=O)c2cccc(-c3cccc(CN4CCC(N5CCCC5)CC4)c3)n2)c1` is 1.03 µM; for `Cc1cc(OCC2CCN(c3ncc(C(=O)NC4CC4)cc3Cl)CC2)ccc1F` it is 0.79 µM; for `COc1ccc(-c2nc(NC(=O)CS(=O)(=O)c3ccc(C)cc3)sc2C)cc1` it is 0.4 µM. The figure for `Cc1cc(OCC2CCN(c3ncc(C(=O)Nc4ccccc4)cc3Cl)CC2)ccc1F` is 0.9 µM; for `Cc1nc2nc(N)nc(N)c2c(C)c1Cc1cccc(C(F)(F)F)c1` it is 1.29 µM. For `O=C(Nc1ccc(Cl)c(Cl)c1)N1CCC(CN2CCC(c3c[nH]c4ccccc34)CC2)CC1`, the IC50 turned out to be 0.29 µM.

`CCCCCN1CCC(NS(=O)(=O)c2cccc(C(=O)Nc3ccc(Cl)cc3)c2)CC1` registered an IC50 of 0.92 µM. Against the preceding compound, the IC50 is about 3.2-fold higher. To `CC[C@H]1CN2CC[C@H]1C[C@H]2[C@H](O)c1ccnc2ccc(OC)cc12` belongs 0.15 µM; to `O=C(Nc1ccc(-c2cccc(-c3nc4ccccc4[nH]3)c2)cc1)Nc1ccc2c(c1)OCO2`, 0.25 µM. The compound `CC(C)CNCc1cccc(-c2cccc(CN(C(=O)NC3CCCCC3)C3CCN(Cc4ccccc4)CC3)c2)c1` came in with an IC50 of 0.82 µM. Take `Cn1ccnc1CNC(=O)c1ccc(-c2ccc(-c3nc4ccc(C(F)(F)F)cc4[nH]3)s2)cc1`: the 50% inhibitory concentration (IC50) was found to be 0.7 µM. With `O=C(N[C@@H](Cc1ccccc1)C(=O)NC1CCCCCC1)c1ccc(O)c(-c2ccc(Cl)c(Cl)c2)c1`, the IC50 came out at 0.33 µM. The figure for `c1cc(-c2ccc(CN3CCCCC3)cc2)cc(-c2nc3ccccc3[nH]2)c1` is 0.58 µM; for `CCNc1cc(C(=O)N[C@@H](Cc2ccccc2)[C@H](O)CNC2(Cc3cccc(Cl)c3)CCC2)cc(N2CCCCS2(=O)=O)c1` it is 1.18 µM. In turn, `CCC1CN2CCc3cc(OC)c(OC)cc3C2CC1CC1NCCc2c1[nH]c1ccc(O)cc21` (configuration not stated) had an IC50 of 0.1 µM. As to `COc1cc(N)c(Cl)cc1C(=O)NCC1CCN(c2nc(C)cc(C)n2)CC1`, the IC50 was determined as 0.51 µM. As for `CCN(CC)CCNc1ccnc2[nH]c3ccc([N+](=O)[O-])cc3c12`, the IC50 came to 0.2 µM.

Compound `Clc1ccc2nnc(-c3c(Cl)cccc3Cl)n2n1` showed an IC50 of 0.91 µM.
